Earlier results as cited in US20230165871A1, “COMBINATION THERAPIES FOR INHIBITION OF POLO-LIKE KINASE 4” (UNIVERSITY HEALTH NETWORK, priority 2020, published 2023).

Key:
[1] = clinical
[2] = system: cell line and patient-derived xenografts of breast and ovarian cancer; conditions: tolerable doses
cancer cell lines = conditions: via induction of apoptosis and cell cycle arrest with induction of aneuploidy
[3] = in vivo

## COc1ccc2c(c1)[C@]1(C[C@H]1c1ccc3c(/C=C/c4ccc(CN5C[C@@H](C)O[C@@H](C)C5)cc4)n[nH]c3c1)C(=O)N2 [Compound (I)]
[1]
  major toxic effects which limit dose: neutropenia, thrombocytopenia, fever, diarrhea and increased liver function tests
[2]
  anti-tumour effects in xenograft models: potent anti-tumour effects at tolerable doses
Cancer cell lines
  anti-proliferative effects in cancer cell lines: potent anti-proliferative effects
[3]
  oral bioavailability: orally bioavailable
